The subject of the series is rodent carcinogenicity bioassays, tumor incidence. The experiment in a line: CCRIS carcinogenicity studies. The settings on record: Dose: 0, Dose: 0. A digest of the protocol:
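NCI-built, expert-reviewed records of carcinogenicity and related test outcomes (mutagenicity, tumor promotion/inhibition) compiled from published and report sources, historical span 1985-2011, not updated.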

Molecules are shown by their SMILES. Calls of active or inactive are those of the source. The rule behind the calls is not given here.

On to `OC[C@H]1O[C@H](O[C@]2(CCl)O[C@H](CCl)[C@@H](O)[C@@H]2O)[C@H](O)[C@@H](O)[C@H]1Cl`, for which the carcinogen call is “inactive; negative” (Species: MOUSE, Strain/Sex: CD-1/FEMALE, Route: ORAL, 3000, 10,000, 30,000 PPM IN DIET FOR 104 WK (STUDY DURATION: 104 WK), 3000, 10,000, 30,000 PPM IN DIET FOR 104 WK (STUDY DURATION: 104 WK)); “inactive; negative” (Species: MOUSE, Strain/Sex: CD-1/MALE, Route: ORAL, 3000, 10,000, 30,000 PPM IN DIET FOR 104 WK (STUDY DURATION: 104 WK), 3000, 10,000, 30,000 PPM IN DIET FOR 104 WK (STUDY DURATION: 104 WK)); “inactive; negative” (Species: RAT, Strain/Sex: SPRAGUE-DAWLEY/FEMALE, Route: ORAL, 0.3, 1.0, 3.0% IN DIET FOR 104 WK (STUDY DURATION: 104 WK), 0.3, 1.0, 3.0% IN DIET FOR 104 WK (STUDY DURATION: 104 WK)); “inactive; negative” (Species: RAT, Strain/Sex: SPRAGUE-DAWLEY/MALE, Route: ORAL, 0.3, 1.0, 3.0% IN DIET FOR 104 WK (STUDY DURATION: 104 WK), 0.3, 1.0, 3.0% IN DIET FOR 104 WK (STUDY DURATION: 104 WK)).
With `FC(Cl)C(F)(F)F` (centres undefined), the carcinogen call is “inactive; negative” (Species: RAT, Strain/Sex: CRL:CD/FEMALE, Route: INHALATION, 2000, 10,000, 50,000 PPM 6 HR/D 5 D/WK FOR 2 YR (STUDY DURATION: 2 YR), 2000, 10,000, 50,000 PPM 6 HR/D 5 D/WK FOR 2 YR (STUDY DURATION: 2 YR)) and “inactive; negative” (Species: RAT, Strain/Sex: CRL:CD/MALE, Route: INHALATION, 2000, 10,000, 50,000 PPM 6 HR/D 5 D/WK FOR 2 YR (STUDY DURATION: 2 YR), 2000, 10,000, 50,000 PPM 6 HR/D 5 D/WK FOR 2 YR (STUDY DURATION: 2 YR)).
Consider `Nc1ccc(/C=C/c2ccc(N)c(S(=O)(=O)O)c2)c(S(=O)(=O)O)c1`, for which the carcinogen call (Species: MOUSE, Strain/Sex: B6C3F1/FEMALE, Route: ORAL, 6250, 12500 PPM IN DIET FOR 103 WK (STUDY DURATION: 2 YR), 6250, 12500 PPM IN DIET FOR 103 WK (STUDY DURATION: 2 YR)) is “inactive; negative”; the carcinogen call (Species: MOUSE, Strain/Sex: B6C3F1/MALE, Route: ORAL, 6250, 12500 PPM IN DIET FOR 103 WK (STUDY DURATION: 2 YR), 6250, 12500 PPM IN DIET FOR 103 WK (STUDY DURATION: 2 YR)) is “inactive; negative”; the carcinogen call (Species: RAT, Strain/Sex: F344/FEMALE, Route: ORAL, 12500, 25000 PPM IN DIET FOR 103 WK (STUDY DURATION: 2 YR), 12500, 25000 PPM IN DIET FOR 103 WK (STUDY DURATION: 2 YR)) was “inactive; negative”; the carcinogen call (Species: RAT, Strain/Sex: F344/MALE, Route: ORAL, 12500, 25000 PPM IN DIET FOR 103 WK (STUDY DURATION: 2 YR), 12500, 25000 PPM IN DIET FOR 103 WK (STUDY DURATION: 2 YR)) was “inactive; negative”.
In the case of `COC(=O)c1ccc(C)cc1C1=NC(C)(C(C)C)C(=O)N1` (centres undefined) (tested in a mixture with another compound), the carcinogen call was “inactive; negative” (Species: Mouse, Strain/Sex: CD-1/Female (65/Group), Route: Oral, 130, 525, 2100 ppm 94.2% imazamethabenz-methyl in diet for 18 mo, study duration 18 mo, 130, 525, 2100 ppm 94.2% imazamethabenz-methyl in diet for 18 mo, study duration 18 mo); “inactive; negative” (Species: Mouse, Strain/Sex: CD-1/Male (65/Group), Route: Oral, 130, 525, 2100 ppm 94.2% imazamethabenz-methyl in diet for 18 mo, study duration 18 mo, 130, 525, 2100 ppm 94.2% imazamethabenz-methyl in diet for 18 mo, study duration 18 mo); “inactive; negative” (Species: Rat, Strain/Sex: Crl:CD(SD)BR/Female (65/Group), Route: Oral, 240, 1000, 4000 ppm 94.2% imazamethabenz-methyl in diet for 24 mo, study duration 24 mo, 240, 1000, 4000 ppm 94.2% imazamethabenz-methyl in diet for 24 mo, study duration 24 mo); “inactive; negative” (Species: Rat, Strain/Sex: Crl:CD(SD)BR/Male (65/Group), Route: Oral, 240, 1000, 4000 ppm 94.2% imazamethabenz-methyl in diet for 24 mo, study duration 24 mo, 240, 1000, 4000 ppm 94.2% imazamethabenz-methyl in diet for 24 mo, study duration 24 mo).
As to `CC1(C)C(C=C(Cl)Cl)C1C(=O)OC(C#N)c1ccc(F)c(Oc2ccccc2)c1` (centres undefined), the carcinogen call was “inactive; negative” (Species: Mouse, Strain/Sex: CD-1/Female (56/dose), Route: Oral, 200, 750, 1,600 ppm (0; 38.4; 140/6; 309.7 mg/kg/day) of 94-95% pure cyfluthrin in feed for 18 mo, 200, 750, 1,600 ppm (0; 38.4; 140/6; 309.7 mg/kg/day) of 94-95% pure cyfluthrin in feed for 18 mo); “inactive; negative” (Species: Mouse, Strain/Sex: CD-1/Male (56/dose), Route: Oral, 200, 750, 1,400 ppm (0; 31.9; 114.8; 232.7 mg/kg/day) of 94-95% pure cyfluthrin in feed for 18 mo, 200, 750, 1,400 ppm (0; 31.9; 114.8; 232.7 mg/kg/day) of 94-95% pure cyfluthrin in feed for 18 mo); “inactive; negative” (Species: Rat, Strain/Sex: Fisher 344/Female (55/dose), Route: Oral, 50, 225, 450 ppm (3.3; 14.4; 28.3 mg/kg/day) of 93.9-95.1% pure cyfluthrin in feed for 2 yr, 50, 225, 450 ppm (3.3; 14.4; 28.3 mg/kg/day) of 93.9-95.1% pure cyfluthrin in feed for 2 yr); “inactive; negative” (Species: Rat, Strain/Sex: Fisher 344/Male (55/dose), Route: Oral, 50, 225, 450 ppm (2.6; 11.6; 22.8 mg/kg/day) of 93.9-95.1% pure cyfluthrin in feed for 2 yr, 50, 225, 450 ppm (2.6; 11.6; 22.8 mg/kg/day) of 93.9-95.1% pure cyfluthrin in feed for 2 yr).
On to `CS(=O)(=O)OCCCNCCCOS(C)(=O)=O`, for which the carcinogen call (Species: MOUSE, Strain/Sex: B6C3F1/FEMALE, Route: INTRAPERITONEAL, 20, 40 MG/KG 3/WK FOR 52 WK (STUDY DURATION: 52 WK), 20, 40 MG/KG 3/WK FOR 52 WK (STUDY DURATION: 52 WK), Tumor Site: Type of Lesion: SUBCUTANEOUS TISSUE: SQUAMOUS CELL CARCINOMA, HEMATOPOIETIC SYSTEM: MALIGNANT LYMPHOMA) is recorded as “equivocal”; the carcinogen call (Species: MOUSE, Strain/Sex: B6C3F1/MALE, Route: INTRAPERITONEAL, 20, 40 MG/KG 3/WK FOR 52 WK (STUDY DURATION: 52 WK), 20, 40 MG/KG 3/WK FOR 52 WK (STUDY DURATION: 52 WK), Tumor Site: Type of Lesion: SUBCUTANEOUS TISSUE: SQUAMOUS CELL CARCINOMA, HEMATOPOIETIC SYSTEM: MALIGNANT LYMPHOMA) is reported as “equivocal”; the carcinogen call (Species: RAT, Strain/Sex: SPRAGUE-DAWLEY/FEMALE, Route: INTRAPERITONEAL, 12 MG/KG 3/WK FOR 52 WK, 24 MG/KG 3/WK FOR 34 WK, 48 MG/KG 3/WK FOR 27 WK (STUDY DURATION: 27-52 WK), 12 MG/KG 3/WK FOR 52 WK, 24 MG/KG 3/WK FOR 34 WK, 48 MG/KG 3/WK FOR 27 WK (STUDY DURATION: 27-52 WK), Tumor Site: Type of Lesion: PERITONEUM: SARCOMA, FIBROMA OR FIBROSARCOMA) is given as “equivocal”; the carcinogen call (Species: RAT, Strain/Sex: SPRAGUE-DAWLEY/MALE, Route: INTRAPERITONEAL, 12 MG/KG 3/WK FOR 52 WK, 24 MG/KG 3/WK FOR 34 WK, 48 MG/KG 3/WK FOR 23 WK (STUDY DURATION: 23-52 WK), 12 MG/KG 3/WK FOR 52 WK, 24 MG/KG 3/WK FOR 34 WK, 48 MG/KG 3/WK FOR 23 WK (STUDY DURATION: 23-52 WK), Tumor Site: Type of Lesion: PERITONEUM: SARCOMA, FIBROMA OR FIBROSARCOMA) is reported as “equivocal”.
As to `CN(N=O)C1CCCCC1`, the carcinogen call is, setting by setting: (Species: HAMSTER, Strain/Sex: SYRIAN/FEMALE, Route: GAVAGE, 2.5 MG/KG 1/WK FOR 50 WK (TOTAL DOSE: 0; 0.9 MMOL) (STUDY DURATION: LIFETIME), 2.5 MG/KG 1/WK FOR 50 WK (TOTAL DOSE: 0; 0.9 MMOL) (STUDY DURATION: LIFETIME)) “inactive; negative”; (Species: HAMSTER, Strain/Sex: SYRIAN/MALE, Route: GAVAGE, 2.5 MG/KG 1/WK FOR 50 WK (TOTAL DOSE: 0; 0.9 MMOL) (STUDY DURATION: LIFETIME), 2.5 MG/KG 1/WK FOR 50 WK (TOTAL DOSE: 0; 0.9 MMOL) (STUDY DURATION: LIFETIME), Tumor Site: Type of Lesion: LUNG: ALVEOLAR/BRONCHIAL ADENOMA, ADENOSQUAMOUS CARCINOMA) “active; positive”.

Values taken from PubChem BioAssay AID1259411 (Chemical Carcinogenesis Research Information System (CCRIS), 2018).
